Results: US5998521A, “Aqueous fluoropolymer compositions and method of preparing the same” (3M Innovative Properties Company, priority 1996, dated 1999)

Key:
[1] = Surface tension and critical micelle concentration of aqueous surfactant solutions; format: physicochemical; conditions: deionized water; for Surf. Tens.: at the CMC
Method: Critical Micelle Concentration (CMC): The critical micelle concentration is defined as the concentration at which further surface tension is no longer lowered with increasing levels of surfactant. To determine CMC, surface tension is measured as a function of surfactant concentration using a K-12 Processor Tensiometer in conjunction with a 665 Dosimat automatic surfactant injection device (also commercially available from Kruss GmbH). Surface tension is then plotted vs. log concentration and the data points are connected. The resulting curve has a nearly horizontal flat portion at concentrations above the CMC and has a negative steep slope at concentrations below the CMC. The CMC is defined as the lowest surfactant concentration in the horizontal flat portion of the curve.
(§1) Then the critical micelle concentration (CMC) was determined for each surfactant.
as §1

[2] = Thermogravimetric analysis of neat perfluorocarboxylate salts; format: physicochemical; conditions: neat salt, nitrogen, 10° C./min
Excerpt: Thermal degradation measurements were made on a series of neat perfluorocarboxylate salts, including several α-branched open chain structures (Examples N2-N9), a primarily linear open chain structure (Example N10-Fluorad™ FC-143 Fluorochemical Surfactant, commercially available from 3M Company, St. Paul, Minn.), and a closed chain (i.e., cyclic) structure (Example N11--made by the electrochemical fluorination of benzoic acid and hydrolysis in the presence of KOH, as described in U.S. Pat. No. 2,567,011 (Diesslin et al.)).
The perfluorocarboxylate salts were tested using a Perkin-Elmer TGA 7 thermogravimetric analysis apparatus and a salt sample size of approximately 5 mg, a heating rate of 10° C./min, and a nitrogen gas flow rate of 40-45 mL/min. Using the TGA 7 software, the following temperatures were recorded: (1) the onset temperature of decomposition, (2) the temperature at which 50% of the sample weight was lost, and (3) the temperature at which 90% of the sample weight was lost.

Molecule | Surf. Tens. ([1]; Table 3) [dynes/cm] | CMC ([1]; Table 3) [ppm] | also measured
C[N+](C)([O-])CCCNC(=O)C(F)(C(F)(F)F)C(F)(F)C(F)(F)C(F)(F)C(F)(F)C(F)(F)C(F)(F)C(F)(F)F (stereo not shown) [Example E1, C7 F15 CF(CF3)CONH(CH2)3 N^+ (CH3)2 O^-] | 16.3 | 20 | 
C[N+](C)([O-])CCCNC(=O)C(F)(C(F)(F)F)C(F)(F)C(F)(F)C(F)(F)C(F)(F)C(F)(F)F (stereo not shown) [Example E2, C5 F11 CF(CF3)CONH(CH2)3 N^+ (CH3)2 O^-] | 17.5 | 500 | 
C[N+](C)([O-])CCCNC(=O)C(F)(C(F)(F)F)C(F)(F)C(F)(F)C(F)(F)C(F)(F)C(F)(F)C(F)(F)F (stereo not shown) [Example E3, C6 F13 CF(CF3)CONH(CH2)3 N^+ (CH3)2 O^-] | 16.6 | 100 | 
C[N+](C)([O-])CCCNC(=O)C(F)(C(F)(F)F)C(F)(F)C(F)(F)C(F)(F)C(F)(F)C(F)(F)C(F)(F)C(F)(F)C(F)(F)F (stereo not shown) [Example E4, C8 F17 CF(CF3)CONH(CH2)3 N^+ (CH3)2 O^-] | 16.5 | 20 | 
C[N+](C)([O-])CCCNC(=O)C(F)(C(F)(F)F)C(F)(F)C(F)(F)C(F)(F)C(F)(F)C(F)(F)C(F)(F)C(F)(F)C(F)(F)C(F)(F)C(F)(F)F (stereo not shown) [Example E5, C10 F21 CF(CF3)CONH(CH2)3 N^+ (CH3)2 O^-] | 17.1 | 500 | 
C[N+](C)([O-])CCCN(CCO)C(=O)C(F)(C(F)(F)F)C(F)(F)C(F)(F)C(F)(F)C(F)(F)C(F)(F)C(F)(F)C(F)(F)F (stereo not shown) [Example E8, C7 F15 CF(CF3)CON(C2 H4 OH)(CH2)3 N^+ (CH3)2 O^-] | 16.6 | 125 | 
O=C(NCCOC(=O)C(F)(C(F)(F)F)C(F)(F)C(F)(F)C(F)(F)C(F)(F)C(F)(F)C(F)(F)C(F)(F)F)c1cc[n+]([O-])cc1 (stereo not shown) [Example E10] | 14.5 | 400 | 
O=C(NCCOC(=O)C(F)(C(F)(F)F)C(F)(F)C(F)(F)C(F)(F)C(F)(F)C(F)(F)C(F)(F)F)c1cc[n+]([O-])cc1 (stereo not shown) [Example E11] | 15.5 | 1000 | 
O=C(OCCc1cccc[n+]1[O-])C(F)(C(F)(F)F)C(F)(F)C(F)(F)C(F)(F)C(F)(F)C(F)(F)C(F)(F)F (stereo not shown) [Example E12] | 18.3 | 8000 | 
O=C(OCCc1cccc[n+]1[O-])C(F)(C(F)(F)F)C(F)(F)C(F)(F)C(F)(F)C(F)(F)C(F)(F)C(F)(F)C(F)(F)F (stereo not shown) [Example E13] | 15.0 | 6000 | 
C[n+]1ccc(C(=O)NCCOC(=O)C(F)(C(F)(F)F)C(F)(F)C(F)(F)C(F)(F)C(F)(F)C(F)(F)C(F)(F)C(F)(F)F)cc1 (stereo not shown) [Example F1] | 15.0 | 500 | 
C[n+]1ccc(C(=O)NCCOC(=O)C(F)(C(F)(F)F)C(F)(F)C(F)(F)C(F)(F)C(F)(F)C(F)(F)C(F)(F)F)cc1 (stereo not shown) [Example F2] | 15.5 | 30 | 
C[N+](C)(CCO)CCCNC(=O)C(F)(C(F)(F)F)C(F)(F)C(F)(F)C(F)(F)C(F)(F)C(F)(F)F (stereo not shown) [Example F3] | 17.0 | 1000 | 
C[N+](C)(CCO)CCCNC(=O)C(F)(C(F)(F)F)C(F)(F)C(F)(F)C(F)(F)C(F)(F)C(F)(F)C(F)(F)C(F)(F)F (stereo not shown) [Example F4] | 19.0 | 300 | 
O=C(NCCC[N+]1(CCO)CCOCC1)C(F)(C(F)(F)F)C(F)(F)C(F)(F)C(F)(F)C(F)(F)C(F)(F)C(F)(F)C(F)(F)F (stereo not shown) [Example F5] | 20.8 |  | 
CN(C)CCCN(CCCN(C)C)C(=O)C(F)(C(F)(F)F)C(F)(F)C(F)(F)C(F)(F)C(F)(F)C(F)(F)C(F)(F)C(F)(F)F (stereo not shown) [Example F9, C7 F15 CF(CF3)CON[C3 H6 N^+ (CH3)2 H]2 2[-OOCCH3]] | 22.0 | 1000 | 
C[N+](C)(CCCNC(=O)C(F)(C(F)(F)F)C(F)(F)C(F)(F)C(F)(F)C(F)(F)C(F)(F)C(F)(F)C(F)(F)F)CCC(=O)[O-] (stereo not shown) [Example K1, C7 F15 CF(CF3)CONH(CH2)3 N^+ (CH3)2C2 H4 COO^-] | 16.6 | 125 | 

Molecule | Surf. Tens. ([1]; Table 3) [dynes/cm] | CMC ([1]; Table 3) [ppm] | also measured
O=C([O-])CC[N+]1(CCCNC(=O)C(F)(C(F)(F)F)C(F)(F)C(F)(F)C(F)(F)C(F)(F)C(F)(F)C(F)(F)C(F)(F)F)CCOCC1 (stereo not shown) [Example K3] | 19.2 |  | 
C[N+](C)(CCCN(CCC[N+](C)(C)CCC(=O)[O-])C(=O)C(F)(C(F)(F)F)C(F)(F)C(F)(F)C(F)(F)C(F)(F)C(F)(F)C(F)(F)C(F)(F)F)CCC(=O)[O-] (stereo not shown) [Example K4] | 23.6 | 100 | 
O=C(O)C(F)(C(F)(F)F)C(F)(F)C(F)(F)C(F)(F)C(F)(F)C(F)(F)F (stereo not shown) [Example M15, C5 F11 CF(CF3)COO^- H4 N^+] |  |  | Temperature for: 50% loss ([2]; listed as N2): 178 °C; Temperature for: 90% loss ([2]; listed as N2): 188 °C; Temperature for: Onset ([2]; listed as N2): 166 °C; Surf. Tens. ([1]; Table 5): 22.1 dynes/cm; CMC ([1]; Table 5): > 10000 ppm
O=C(O)C(F)(C(F)(F)C(F)(F)F)C(F)(F)C(F)(F)C(F)(F)C(F)(F)C(F)(F)C(F)(F)F (stereo not shown) [Example M19, C6 F13 CF(C2 F5)COO^- H4 N^+] |  |  | Temperature for: 50% loss [2]: 171 °C; Temperature for: 90% loss [2]: 188 °C; Temperature for: Onset [2]: 153 °C
O=C(O)C(F)(C(F)(F)F)C(F)(F)C(F)(F)C(F)(F)C(F)(F)C(F)(F)C(F)(F)C(F)(F)F (stereo not shown) [Example M20, C7 F15 CF(CF3)COO^- H3 N^+ C2 H4 OH] |  |  | Surf. Tens. ([1]; Table 5): 15.0 dynes/cm; CMC ([1]; Table 5): 500 ppm
O=C(O)C(F)(C(F)(F)F)C(F)(F)C(F)(F)C(F)(F)C(F)(F)C(F)(F)C(F)(F)F (stereo not shown) [Example M22, C6 F13 CF(CF3)COO^- K^+] |  |  | Surf. Tens. ([1]; Table 5): 17.5 dynes/cm; CMC ([1]; Table 5): 10000 ppm
O=C(O)C(F)(C(F)(F)F)C(F)(F)C(F)(F)C(F)(F)C(F)(F)C(F)(F)C(F)(F)C(F)(F)F (stereo not shown) [Example M23, C7 F15 CF(CF3)COO^- K^+] |  |  | Surf. Tens. ([1]; Table 5): 15.0 dynes/cm; CMC ([1]; Table 5): 2500 ppm
O=C(O)C(F)(C(F)(F)F)C(F)(F)C(F)(F)C(F)(F)C(F)(F)C(F)(F)C(F)(F)C(F)(F)C(F)(F)F (stereo not shown) [Example M24, C8 F17 CF(CF3)COO^- K^+] |  |  | Surf. Tens. ([1]; Table 5): 16.4 dynes/cm; CMC ([1]; Table 5): 3000 ppm
O=C(O)C(F)(C(F)(F)F)C(F)(F)C(F)(F)C(F)(F)C(F)(F)C(F)(F)C(F)(F)F (stereo not shown) [Example M25, C6 F13 CF(CF3)COO^- Na^+] |  |  | Surf. Tens. ([1]; Table 5): 19.8 dynes/cm; CMC ([1]; Table 5): 10000 ppm
O=C(O)C(F)(C(F)(F)F)C(F)(F)C(F)(F)C(F)(F)C(F)(F)C(F)(F)C(F)(F)C(F)(F)F (stereo not shown) [Example M26, C7 F15 CF(CF3)COO^- Na^+] |  |  | Surf. Tens. ([1]; Table 5): 19.4 dynes/cm; CMC ([1]; Table 5): 3000 ppm
O=C(O)C(F)(C(F)(F)F)C(F)(F)C(F)(F)C(F)(F)C(F)(F)C(F)(F)C(F)(F)C(F)(F)F (stereo not shown) [Example M27, C7 F15 CF(CF3)COO^- Li^+] |  |  | Surf. Tens. ([1]; Table 5): 24.1 dynes/cm; CMC ([1]; Table 5): 3500 ppm
O=C(O)C(F)(C(F)(F)F)C(F)(F)C(F)(F)C(F)(F)C(F)(F)C(F)(F)F (stereo not shown) [Example M28, C5 F11 CF(CF3)COO^- Na^+] |  |  | Temperature for: 50% loss ([2]; listed as N8): 250 °C; Temperature for: 90% loss ([2]; listed as N8): 263 °C; Temperature for: Onset ([2]; listed as N8): 236 °C
O=C(O)C(F)(C(F)(F)F)C(F)(F)C(F)(F)C(F)(F)C(F)(F)C(F)(F)C(F)(F)C(F)(F)F (stereo not shown) [Example M30, C7 F15 CF(CF3)COO^- 1/2[H3 N^+ C2 H4 NHC2 H4 N^+ H3]] |  |  | Surf. Tens. ([1]; Table 5): 16.2 dynes/cm; CMC ([1]; Table 5): 3000 ppm
O=C(O)C1(F)C(F)(F)C(F)(F)C(F)(F)C(F)(F)C1(F)F [U.S. Pat. No. 2,567,011, reference compound] |  |  | Temperature for: 50% loss [2]: 110 °C; Temperature for: 90% loss [2]: 120 °C; Temperature for: Onset [2]: 100 °C
C6 F13 CF(CF3)CON(C3 H6 SO3^-)(CH2)3 N^+ (CH3)2 H [Example K2] | 20.3 | 500 | 
C8 F17 CF(CF3)CO(OCH2 CH2)16 OCH3 [Example J1] | 22 | 150 | 
